Assay results taken from patent publication US7772177B2, “BIR domain binding compounds” (Aegera Therapeutics, Inc., priority 2005, dated 2010).
pIC50: −log10 of the molar value.

Tests used:
[1] = biological target: T1, caspase-3 inhibited by linker BIR2-BIR3-RING of XIAP (Homo sapiens, UniProt P98170); test: Caspase-3 linker-BIR2-BIR3-RING derepression assay; type: biochemical
T1 construct: made in house; host or cells: E. coli DH5-alpha (GST-XIAP); E. coli AD494 (His-caspase-3)
Method: In order to determine the relative activity of the selected compound against BIR2, an in vitro assay was used where caspase-3 was inhibited by linker-BIR2 or linker BIR2-BIR3-RING of XIAP. Briefly, 1.5 ul of the enzyme, 0.25 uM to 2 uM of GST-Xiap fusion protein (GST-linker BIR2, GST-linker BIR2BIR3RING) were co-incubated with serial dilutions of compound (80 uM-0.04 uM). Caspase 3 activity was measured by overlaying 25 ul of a 0.4 mM DEVD-AMC solution. Final reaction volume was 100 ul. All dilutions were performed in caspase buffer (50 mM Hepes pH 7.4, 100 mM NaCl, 10% sucrose, 1 mM EDTA, 10 mM DTT, 0.1% CHAPS (Stennicke, H. R., and Salvesen, G. S. (1997). Biochemical characteristics of caspase-3, -6, -7, and -8. J. Biol. Chem. 272, 25719-25723)).
The fluorescent AMC released from the caspase-3 hydrolysis of the substrate was measured in a TECAN spectrophotometer at 360 nm excitation and 444 nm emission, on a kinetic cycle of 30 minutes with readings taken every 2 minutes. Caspase activity was calculated as Vo of AMC fluorescence/sec. Caspase de-repression by our compounds were compared to caspase-3 alone and caspase 3 repressed by the presence of XIAP fusion protein.
(§1) Results: Compounds were also tested in the apoptosome assay and the linker-BIR2/caspase-3 inhibition assay and found to have IC50s in the following ranges: A: >10 μM; B: <10 μM; C: <1 μM, as shown in Table 7.

[2] = biological target: T2, XIAP Bir2-Bir3-RING (GST-linker BIR2 BIR3RING) (Homo sapiens, UniProt P98170); test: Caspase de-repression assay using cellular extracts (apoptosome), XIAP Bir2-Bir3-RING; type: biochemical; conditions: 293 cell S100 extract
T2 construct: made in house; host or cells: E. coli DH5-alpha
T2 sequence (P98170 93-497): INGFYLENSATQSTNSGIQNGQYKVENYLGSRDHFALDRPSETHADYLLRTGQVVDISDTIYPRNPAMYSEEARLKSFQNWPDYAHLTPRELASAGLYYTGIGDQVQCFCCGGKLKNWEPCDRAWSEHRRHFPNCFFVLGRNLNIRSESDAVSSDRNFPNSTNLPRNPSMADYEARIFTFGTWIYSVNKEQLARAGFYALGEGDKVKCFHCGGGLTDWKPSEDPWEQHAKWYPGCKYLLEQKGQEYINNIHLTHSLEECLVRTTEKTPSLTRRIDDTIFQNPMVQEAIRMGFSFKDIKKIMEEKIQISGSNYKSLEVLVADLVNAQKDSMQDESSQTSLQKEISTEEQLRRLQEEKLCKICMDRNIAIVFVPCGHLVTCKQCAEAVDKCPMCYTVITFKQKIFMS
Method: (§2) 100 ug of 293 cell S100 extract and 0.25 uM-2 uM of GST-Xiap fusion protein (GST-BIR 3RING, GST-linker BIR2 BIR3RING) were co-incubated with serial dilutions of compound (0.02 uM-40 uM). Extracts were activated by adding 1 mM dATP, 0.1 mM ALLN, 133 ug Cytochrome C (final concentrations), and incubating at 37° C. for 25 minutes. All reactions and dilutions used S100 buffer (50 mM Pipes pH 7.0, 50 mM KCl, 0.5 mM EGTA pH 8.0, 2 mM MgCl2 supplemented with 1/1000 dilutions of 2 mg/ml Cytochalisin B, 2, mg/ml Chymotstatin, Leupeptin, Pepstatin, Antipain, 0.1M PMSF, 1M DTT). Final reaction volume was 30 ul. Caspase-3 activity was measured by overlaying 30 ul of a 0.4 mM DEVD-AMC solution. AMC cleavage was measured in a TECAN spectrophotometer at 360 nm excitation and 444 nm emission, on a kinetic cycle of 1 hour with readings taken every 5 minutes. Caspase activity was calculated as Vo of AMC fluorescence/sec. Caspase de-repression by our compounds were compared to fully activated extract and activated extract repressed by the presence of XIAP fusion protein.
as §1

[3] = biological target: T3, GST-HIAP1(cIAP-2) BIR 3 (Homo sapiens, UniProt Q13489); test: Fluorescence polarization-based competition assay, cIAP-2 Bir3; type: binding
T3 construct: made in house; host or cells: E. coli DH5-alpha
T3 sequence (Q13489 236-349): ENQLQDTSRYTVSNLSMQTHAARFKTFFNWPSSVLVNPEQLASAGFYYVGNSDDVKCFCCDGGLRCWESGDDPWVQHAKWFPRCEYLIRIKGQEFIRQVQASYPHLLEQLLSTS
Method: GST-HIAP1(cIAP-2) BIR 3: HIAP1 coding sequence from amino acids 236-349, cloned into PGex4T3 via BamH1 and XhoI. The plasmid was transformed into E. coli DH5α for use in protein expression and purification.
(§3) A fluorescent peptide probe, Fmoc-Ala-Val-Pro-Phe-Tyr(t-Bu)-Leu-Pro-Gly(t-Bu)-Gly-OH was prepared using standard Fmoc chemistry on 2-chlorotrityl chloride resin (Int. J. Pept. Prot. Res. 38:555-561, 1991). Cleavage from the resin was performed using 20% acetic acid in dichloromethane (DCM), which left the side chain still blocked. The C-terminal protected carboxylic acid was coupled to 4′-(aminomethyl)fluorescein (Molecular Probes, A-1351; Eugene, Oreg.) using excess diisopropylcarbodiimide (DIC) in dimethylformamide (DMF) at room temperature and was purified by silica gel chromatography (10% methanol in DCM). The N-terminal Fmoc protecting group was removed using piperidine (20%) in DMF, and purified by silica gel chromatography (20% methanol in DCM, 0.5% HOAc). Finally, the t-butyl side chain protective groups were removed using 95% trifluoroacetic acid containing 2.5% water and 2.5% triisopropyl silane. […] Compound #174 was also used as a fluorescent probe in this assay.
(§4) For all assays, the fluorescence and fluorescence-polarization was evaluated using a Tecan Polarion instrument with the excitation filter set at 485 nm and the emission filter set at 535 nm. For each assay, the concentration of the target protein was first establish by titration of the selected protein in order to produce a linear dose-response signal when incubated alone in the presence of the fluorescent probe. Upon establishing these conditions, the compounds potency (IC50) and selectivity, was assessed in the presence of a fix defined-amount of target protein and fluorescent probe and a 10 point serial dilution of the selected compounds. For each IC50 curve, the assays were run as followed: 25 ul/well of diluted compound in 50 mM MES buffer pH 6.5 were added into a black 96 well plate then 25 ul/well of bovine serum albumin (BSA) at 0.5 mg/ml in 50 mM MES pH 6.5. Auto-fluorescence for each compound was first assessed by performing a reading of the compound/BSA solution alone. Then 25 ul of the fluorescein probe diluted into 50 mM MES containing 0.05 mg/ml BSA were added and a reading to detect quenching of fluorescein signal done. Finally 25 ul/well of the target or control protein (GST-BIRs) diluted at the appropriate concentration in 50 mM MES containing 0.05 mg/ml BSA were added and the fluorescence polarization evaluated.
(§5) For each assay the relative polarization-fluorescence units were plotted against the final concentrations of compound and the IC50 calculated using the Grad pad prism software and/or Cambridge soft. The ki value were derived from the calculated IC50 value as described above and according to the equation described in Nikolovska-Coleska, Z. (2004) Anal Biochem 332, 261-273.
(§6) Compounds exemplified in Table 6 were tested and found to have IC50s in the following ranges: A: >10 μM; B: <10 μM; C: <1 μM using the fluorescence polarization assay, as shown in Table 5. Each of the IC50s was calculated from Graph Pad.

[4] = biological target: T4, GST-HIAP2 (cIAP-1) BIR 3 (Homo sapiens, UniProt Q13490); test: Fluorescence polarization-based competition assay, cIAP-1 Bir3; type: binding
T4 construct: made in house; host or cells: E. coli DH5-alpha
T4 sequence (Q13490 251-363): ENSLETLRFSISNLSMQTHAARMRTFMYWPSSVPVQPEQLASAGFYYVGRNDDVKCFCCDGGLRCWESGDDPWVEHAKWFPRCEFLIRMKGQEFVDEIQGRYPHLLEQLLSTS
Method: GST-HIAP2 (cIAP-1) BIR 3: HIAP2 coding sequence from amino acids 251-363 cloned into PGex4T3 via BamH1 and XhoI. The plasmid was transformed into E. coli DH5α for use in protein expression and purification.
as §3, §4, §5, §6

[5] = biological target: T5, XIAP Bir3-RING (GST-BIR 3RING) (Homo sapiens, UniProt P98170); test: Caspase de-repression assay using cellular extracts (apoptosome), XIAP Bir3-RING; type: biochemical; conditions: 293 cell S100 extract
T5 construct: made in house; host or cells: E. coli DH5-alpha
T5 sequence (P98170 246-497): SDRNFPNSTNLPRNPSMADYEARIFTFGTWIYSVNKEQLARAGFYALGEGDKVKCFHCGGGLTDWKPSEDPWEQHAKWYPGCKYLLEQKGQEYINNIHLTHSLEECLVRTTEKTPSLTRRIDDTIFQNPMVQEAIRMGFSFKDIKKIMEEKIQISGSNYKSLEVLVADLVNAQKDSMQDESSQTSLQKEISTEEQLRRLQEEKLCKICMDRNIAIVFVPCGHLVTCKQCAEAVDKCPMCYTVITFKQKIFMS
Method: as §2, §1

[6] = biological target: T6, GST-XIAP BIR3RING (Homo sapiens, UniProt P98170); test: Fluorescence polarization-based competition assay, XIAP Bir3-RING; type: binding
T6 construct: made in house; host or cells: E. coli DH5-alpha
T6 sequence (P98170 246-497): as above
Method: GST-XIAP BIR3RING: XIAP coding sequence amino acids 246-497 cloned into PGEX2T1 via BamH1 and AVA I. The plasmid was transformed into E. coli DH5α for use in protein expression and purification.
as §3, §4, §5, §6

T1 sequence (P98170 93-497): as the sequence (P98170 93-497) above

SMILES | pIC50 [1] | pIC50 [2] | pIC50 [3] | pIC50 [4] | pIC50 [5] | pIC50 [6]
CC[C@H](N)C(=O)N[C@H](C(=O)N1CCC[C@H]1CN(C(C)=O)[C@@H]1CCCc2ccccc21)C(C)C [Compound 9] | < 5.00 | < 5.00 | < 5.00 | < 5.00 | > 6.00 | > 5.00
CN[C@@H](C)C(=O)N[C@H](C(=O)N1CCC[C@H]1CN(CCc1ccccc1)C(=O)CCc1ccccc1)C(C)(C)C [Compound 27] | < 5.00 | > 5.00 | > 6.00 | > 6.00 | > 6.00 | > 6.00
CN[C@@H](C)C(=O)N[C@H](C(=O)N1CCC[C@H]1CN(CCc1ccccc1)C(=O)CN)C(C)(C)C [Compound 32] | < 5.00 |  | > 6.00 | > 6.00 | > 6.00 | > 6.00
CC(C)[C@H](NC(=O)[C@H](C)N)C(=O)N1CCC[C@H]1CN(CCc1ccccc1)S(C)(=O)=O [Compound 17] | < 5.00 | < 5.00 | > 6.00 | > 6.00 | > 6.00 | > 5.00
CC(C)[C@H](NC(=O)[C@H](C)N)C(=O)N1CCC[C@H]1CN(CCCCO)CCc1ccccc1 [Compound 29] | < 5.00 | > 5.00 | > 6.00 | > 6.00 | > 6.00 | > 5.00
CC(C)[C@H](NC(=O)[C@H](C)N)C(=O)N1CCC[C@H]1CN(CCc1ccccc1)C(=O)CCCc1ccccc1 [Compound 31] | < 5.00 | < 5.00 | > 6.00 | > 6.00 | > 6.00 | > 6.00
CC(C)[C@H](NC(=O)[C@H](C)N)C(=O)N1CCC[C@H]1CN(CCc1ccccc1)C(=O)CCc1ccccc1 [Compound 21] | < 5.00 | < 5.00 | > 6.00 | > 6.00 | > 6.00 | > 6.00
CC(C)[C@H](NC(=O)[C@H](C)N)C(=O)N1CCC[C@H]1CN(CCc1ccccc1)C(=O)Cc1ccccc1 [Compound 23] | < 5.00 | < 5.00 | > 6.00 | > 6.00 | > 6.00 | > 6.00
CC[C@H](N)C(=O)N[C@H](C(=O)N1CCC[C@H]1CN(CCc1ccccc1)C(C)=O)C(C)C [Compound 5] | > 5.00 | < 5.00 | > 6.00 | > 6.00 | > 6.00 | > 5.00
CC[C@H](N)C(=O)N[C@H](C(=O)N1CCC[C@H]1CNCCc1ccccc1)C(C)C [Compound 2] |  | < 5.00 | > 5.00 | > 5.00 | < 5.00 | > 5.00
CC(=O)N(CCc1ccccc1)C[C@@H]1CCCN1C(=O)[C@@H](NC(=O)[C@H](C)N)C(C)C [Compound 19] | < 5.00 | < 5.00 | > 6.00 | > 6.00 | > 6.00 | > 6.00
CCCC(=O)N(CCc1ccccc1)C[C@@H]1CCCN1C(=O)[C@@H](NC(=O)[C@H](C)N)C(C)C [Compound 22] | < 5.00 | < 5.00 | > 6.00 | > 6.00 | > 6.00 | > 6.00
CN[C@@H](C)C(=O)N[C@H](C(=O)N1CCC[C@H]1CN(CCc1ccccc1)C(=O)CCC(=O)O)C(C)(C)C [Compound 35] | < 5.00 |  | > 6.00 | > 6.00 | > 6.00 | > 6.00
CNCC(=O)N(CCc1ccccc1)C[C@@H]1CCCN1C(=O)[C@@H](NC(=O)[C@H](C)NC)C(C)(C)C [Compound 34] | < 5.00 |  | > 6.00 | > 6.00 | > 6.00 | > 6.00
CC(C)[C@H](NC(=O)[C@H](C)N)C(=O)N1CCC[C@H]1CN(CCc1ccccc1)C(=O)c1ccccc1 [Compound 24] | < 5.00 |  | > 6.00 | > 6.00 | > 6.00 | > 6.00
CN[C@@H](C)C(=O)N[C@H](C(=O)N1CCC[C@H]1CN(CCc1ccccc1)C(=O)OCc1ccccc1)C(C)(C)C [Compound 26] | < 5.00 |  | > 6.00 | > 6.00 | < 5.00 | > 6.00
CC[C@H](N)C(=O)N[C@H](C(=O)N1CCC[C@H]1CN(C(C)=O)[C@H](C)c1ccccc1)C(C)C [Compound 7] | < 5.00 |  |  |  | > 6.00 | < 5.00
CN[C@@H](C)C(=O)N[C@H](C(=O)N1CCC[C@H]1CN(CCc1ccccc1)C(=O)CCN)C(C)(C)C [Compound 33] | < 5.00 |  | > 6.00 | > 6.00 | > 6.00 | > 6.00
CC(C)[C@H](NC(=O)[C@H](C)N)C(=O)N1CCC[C@H]1CN(CCc1ccccc1)C(=O)COc1ccccc1 [Compound 28] | < 5.00 |  | > 6.00 | > 6.00 | > 6.00 | > 6.00
COCC(=O)N(CCc1ccccc1)C[C@@H]1CCCN1C(=O)[C@@H](NC(=O)[C@H](C)N)C(C)C [Compound 25] | < 5.00 |  | > 6.00 | > 6.00 | > 6.00 | > 5.00
